From the NIST ThermoML archive (doi:10.1016/j.fluid.2016.02.037)
Where “and” joins values, the source holds several entries; their conditions need not be identical. Identical values can stand only once.

Assay: Molar enthalpy of transition or fusion
Conditions: Crystal; DSC

Molar enthalpy of transition or fusion: 4.51 kcal/mol and 3.33 kcal/mol
Structure (SMILES): Cn1nnnc1SCC1=C(C(=O)[O-])N2C(=O)[C@@H](NC(=O)[C@H](OC=O)c3ccccc3)[C@H]2SC1.[Na+] [cefamandole nafate]
